SMILES strings stand for the structures. Activity calls are given as the source filed them. Cut-off read from the data, not from the text of the source, for most assays here: actives have a measured EC50 and inactives only a lower limit. Where only a bound is given, the exact number is not on record here.

Data on 52 molecules can be found in ChEMBL document CHEMBL1201862, “PubChem BioAssay data set” (2004).

A short description of test [1]: HEp-2 cell cytotoxicity, dose response, cytotoxicity control for RSV inhibitor project, HTS (AID 2410). It counts as functional. The settings on record: human respiratory syncytial virus.
The nature of test [2]: inhibitors of intracellular T. cruzi replication, confirmation, NIH3T3 host cells, beta-gal luminescence (AID 2044).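 Note: intracellular parasites grown in NIH/3T3 mouse fibroblasts as host cells; luminescent beta-galactosidase reporter signal from transgenic T. cruzi replicating inside host cells; inhibitors lower the luminescence signal.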 It counts as functional, cell-based.
Test [3] in a line: cytotoxicity toward NIH3T3 fibroblasts, dose response, counter-screen, cell-based, ATP luminescence, mouse fibroblasts (AID 2010).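 Note: cells exposed to compound for about 90 hours before reading.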 The settings on record: NIH3T3. It counts as functional. Background: A counterscreen serves to expose hits that act by an unwanted route or on another target.
Test [4] has as its system Streptococcus sp. 'group A'. The test can be described thus: growth inhibition of control SK(-) GAS strain, dose response, counter-screen for streptokinase expression inhibitor project, luminescence, kanamycin, BacTiterGlo, confirmation (AID 1900). It counts as functional, organism-based. The settings on record: Streptococcus sp. 'group A'.
In another test the test system is Streptococcus. Put plainly: Group A Streptococcus viability loss, dose response, counter-screen for streptokinase expression inhibitor project, luminescence, BacTiterGlo (AID 1915).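 Note: potency for reduction of bacterial viability or growth.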 It counts as functional, organism-based. To be noted: Streptococcus.
Another test deals with T1, Streptokinase A (Streptococcus pyogenes serotype M1, UniProt P10520).
T1 sequence (P10520 whole entry): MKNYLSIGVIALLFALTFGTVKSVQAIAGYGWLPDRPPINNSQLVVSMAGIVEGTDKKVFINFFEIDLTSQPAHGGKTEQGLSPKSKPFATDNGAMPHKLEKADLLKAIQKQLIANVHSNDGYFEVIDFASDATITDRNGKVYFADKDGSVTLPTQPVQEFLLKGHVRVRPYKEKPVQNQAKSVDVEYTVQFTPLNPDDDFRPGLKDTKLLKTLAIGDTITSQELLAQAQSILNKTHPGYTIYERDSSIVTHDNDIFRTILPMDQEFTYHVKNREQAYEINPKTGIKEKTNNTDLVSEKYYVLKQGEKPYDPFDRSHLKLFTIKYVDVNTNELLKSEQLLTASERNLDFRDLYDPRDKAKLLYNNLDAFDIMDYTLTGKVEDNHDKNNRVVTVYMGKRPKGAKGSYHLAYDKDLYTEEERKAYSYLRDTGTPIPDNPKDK
The test can be described thus: S. pyogenes streptokinase expression inhibitors, potency, dose response, plasminogen activation absorbance, OD405 (AID 1914).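 Note: secreted streptokinase activity via plasminogen activation per viability signal from cell pellet.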 It counts as functional, Streptococcus pyogenes M1 GAS.

Another test has as its target Cytochrome P450 3A4 (Homo sapiens, UniProt P08684).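 Note: CYP3A4 tested as one member of a cytochrome P450 panel screen.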

Chain of Cytochrome P450 3A4 (P08684 whole entry): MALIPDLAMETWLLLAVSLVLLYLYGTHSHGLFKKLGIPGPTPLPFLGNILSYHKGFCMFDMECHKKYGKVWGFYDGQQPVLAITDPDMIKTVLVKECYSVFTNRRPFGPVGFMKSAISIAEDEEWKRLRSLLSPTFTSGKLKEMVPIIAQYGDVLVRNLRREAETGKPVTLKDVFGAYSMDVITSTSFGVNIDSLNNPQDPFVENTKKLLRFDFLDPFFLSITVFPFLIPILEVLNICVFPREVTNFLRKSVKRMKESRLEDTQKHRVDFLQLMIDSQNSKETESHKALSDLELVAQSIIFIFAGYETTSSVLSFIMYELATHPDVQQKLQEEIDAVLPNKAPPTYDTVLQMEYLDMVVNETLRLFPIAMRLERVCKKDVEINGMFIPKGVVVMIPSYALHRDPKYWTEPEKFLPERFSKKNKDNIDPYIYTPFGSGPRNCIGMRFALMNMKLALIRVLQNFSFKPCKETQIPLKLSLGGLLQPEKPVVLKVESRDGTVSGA

With `Cc1cc(O)c(NC(=O)c2cc([N+](=O)[O-])ccc2Cl)cc1C`, the CC50 in test [1] was 23.3 µM (active).

For `Cc1ccc(N2C(=O)CC(Sc3nc4ccccc4o3)C2=O)cc1Cl` (configuration not stated), the EC50 in test [2] was 2.16 µM (active); in test [3], 8.27 µM (active).

In the case of `Fc1ccc(CNc2nc(-c3cccnc3)nc3ccccc23)cc1`, the values for the EC50 in test [2] and in test [3] were 0.67 µM (active) and > 60 µM (not active), respectively.

On to `O=C(Nc1ccccc1N1CCN(C(=O)c2ccc(Cl)cc2)CC1)c1ccc(Br)cc1`, for which the figures for the EC50 in test [2] and in test [3] were 1.29 µM (active) and > 60 µM (not active), respectively.

With `Clc1ccccc1Sc1ccc(-c2ccccn2)s1`, the EC50 is 17.6 µM (active) in test [4], > 150 µM (not active) in the test with Streptococcus and > 150 µM (not active) at Streptokinase A.

Consider `C1=NCCc2c1[nH]c1ccccc21.[O-][Cl+3]([O-])([O-])O`, for which the CC50 in test [1] was 10.3 µM (active).

In the case of `CCCSc1nsc(NC(=O)CCC)n1`, the EC50 was 1.04 µM (active) in test [2] and > 60 µM (not active) in test [3].

Regarding `Cc1ccc(OCC(=O)Nc2cc(S(=O)(=O)N3CCCCC3)ccc2N2CCN(C)CC2)c(C)c1`, the EC50 in test [2] was 0.171 µM (active); in test [3], > 60 µM (not active).

Take `COc1ccc(-n2nc3cc(C)c(NC(=O)C(C)C)cc3n2)cc1`: the EC50 (in test [4]; in the test with Streptococcus; on Streptokinase A) was > 150 µM (not active) in each case.

In the case of `Cc1cnc(CNc2ccnc(-c3c(C)noc3C)n2)cn1`, on Cytochrome P450 3A4, the AC50 is 10 µM (inconclusive).

Regarding `CCOC(=O)C1CCN(C2=C(NS(=O)(=O)c3ccc(Cl)cc3)C(=O)c3ccccc3C2=O)CC1`, the EC50 in test [4] was 8.11 µM (active); in the test with Streptococcus, > 150 µM (not active); on Streptokinase A it was 27 µM (active).

Turning to `CN1CCN(C(=O)CCCN2C(=O)/C(=C/c3ccc(Cl)cc3)SC2=S)CC1`, the CC50 in test [1] is 13.5 µM (active).

In the case of `COc1ccccc1CN1CCCC(CNC(=O)c2cccc3ccccc23)C1` (configuration not stated), the EC50 in test [2] is 0.679 µM (active); in test [3] it was > 60 µM (not active).

Consider `CCN(CCCNC(=O)CNC(=O)c1nn(-c2ccc(OC)cc2)c(=O)c2ccccc12)c1cccc(C)c1`, for which the CC50 in test [1] is 46 µM (active).

`Cc1ccc(C)c(-c2nnc(NC(=O)CCS(=O)(=O)c3ccccc3)o2)c1`: the EC50 in test [4] was 8.03 µM (active); in the test with Streptococcus, 141 µM (active); on Streptokinase A, > 150 µM (not active).

For `CSc1ccc(S(=O)(=O)NCC(=O)OCC(=O)N2CCCC2=O)cc1[N+](=O)[O-]`, the EC50 in test [4] was 4.7 µM (active); in the test with Streptococcus, > 150 µM (not active); on Streptokinase A it was > 150 µM (not active).

With `COc1ccc(C(C(=O)NC2CCCCC2)N(C(=O)Cc2c[nH]c3ccccc23)c2ccccc2)cc1OC` (configuration not stated), the CC50 in test [1] is 27.2 µM (active).

For the molecule `Cc1ccc(C2(C(F)(F)F)N=C3Sc4cc(C)cc(C)c4N3C(=O)N2)cc1` (configuration not stated), the CC50 in test [1] is 23 µM (active).

`CNC(=O)c1sc(-c2cccnc2)nc1C`: the AC50 at Cytochrome P450 3A4 is 31.6 µM (inconclusive).

In the case of `COc1ccc(-n2c(=O)c(-c3cccs3)nc3cnc(Nc4cccc(OC)c4)nc32)cc1`, on Cytochrome P450 3A4, the AC50 is 1.58 µM (inconclusive).

As for `O=C(NCc1ccco1)C(c1ccccc1F)N(Cc1cccnc1)C(=O)Cn1nnc2ccccc21` (configuration not stated), the EC50 was 1.68 µM (active) in test [2] and > 60 µM (not active) in test [3].

For `CC[C@H]1C2=C3C(CC[C@H]4C(OCc5ccc(F)cc5C(F)(F)F)OC[C@](C)([C@@H]34)N(C(=O)OC(C)(C)C)C2)C(COC)C1COC` (some centres not stated), the half-maximal activity concentration (AC50) at Cytochrome P450 3A4 was 10 µM (inconclusive).

On to `c1ccc(Nc2nc3ccccc3[nH]2)nc1`, for which the EC50 is 3.59 µM (active) in test [4], > 150 µM (not active) with Streptococcus and > 150 µM (not active) on Streptokinase A.

`c1ccc(-c2cccc(N3CC[C@@]4(CCCNC4)C3)c2)cc1`: the AC50 on Cytochrome P450 3A4 was 15.8 µM (inconclusive).

In the case of `N#Cc1ccccc1-c1ccc2ncnc(N3CCNCC3)c2c1`, the AC50 on Cytochrome P450 3A4 was 31.6 µM (inconclusive).

Take `CCOc1ccccc1NC(=O)NCc1ccc2c(c1)OCO2`: the EC50 (in test [4]; in the test with Streptococcus; at Streptokinase A) was > 150 µM (not active) throughout.

As for `Cc1nc(N2CCN(Cc3ccccc3)CC2)nc2c1C(=O)CC(C)C2` (configuration not stated), the EC50 in test [2] was 1.42 µM (active); in test [3], > 60 µM (not active).

For the molecule `Cc1nc(NC(=O)c2ccc(Cl)cc2)sc1-c1csc(Nc2cccc(F)c2)n1`, the results for the EC50 (in test [4]; in the test on Streptococcus; at Streptokinase A) were 1.67 µM (active), 21.4 µM (active) and > 150 µM (not active), respectively.

Regarding `COc1ccccc1CN1CCCC2(CCN(C(=O)c3ccco3)CC2)C1`, the AC50 at Cytochrome P450 3A4 was 25.1 µM (inconclusive).

Turning to `CN(C)CCOCCOc1ccc(Cl)cc1Br`, the values for the EC50 in test [2] and in test [3] were 0.937 µM (active) and > 60 µM (inconclusive), respectively.

For the molecule `NCCCP(=O)(O)O`, at Cytochrome P450 3A4, the AC50 was 0.158 µM (inconclusive).

Turning to `Cc1nn(-c2ccc([N+](=O)[O-])cc2)c(O)c1/C=N/CCN1CCN(C(=O)c2ccc(Br)cc2)CC1`, the values for the EC50 in test [2] and in test [3] were 10.7 µM (active) and 39.9 µM (active), respectively.

`CCOC(=O)c1c(NC(=O)CSc2nnnn2-c2ccccc2OCC)sc2c1CC(C)(C)NC2(C)C`: the EC50 in test [2] was 1.31 µM (active); in test [3], > 30 µM (not active).

Take `Cc1cccc(C(=O)NNC(=O)c2c(O)c3ccccc3n(C)c2=O)c1`: the EC50 in test [4] was 4.62 µM (active); with Streptococcus, 9.81 µM (active); at Streptokinase A, > 150 µM (not active).

Turning to `CC(=O)NCCn1c(SCc2cc(F)ccc2F)nc2ccccc2c1=O`, the EC50 in test [2] is 0.487 µM (active); in test [3], > 60 µM (not active).

Consider `Cc1cc(C)c2[nH]c(O)c(N=Nc3ccc(C(=O)O)cc3)c2c1`, for which the EC50 in test [4] is 4.53 µM (active); in the test with Streptococcus, 11.1 µM (active); on Streptokinase A it was > 150 µM (not active).

Consider `CN1CCN(c2ccc(S(=O)(=O)N3CCCCC3)cc2NC(=O)COc2cccc(Cl)c2)CC1`, for which the figures for the EC50 in test [2] and in test [3] were 0.629 µM (active) and > 30 µM (not active), respectively.

Take `Cn1nc(-c2ccccc2)c(CSc2ccccc2Cl)c1Cl`: the values for the EC50 (in test [4]; in the test on Streptococcus; at Streptokinase A) were 22.8 µM (active), > 150 µM (not active) and 22.8 µM (active), respectively.

For `COc1ccc(C(=O)Nc2ccccc2-c2nnn(CC(=O)Nc3ccc4c(c3)OCCO4)n2)cc1`, the EC50 is 41.1 µM (active) in test [4], > 150 µM (inconclusive) in the test on Streptococcus and > 150 µM (not active) at Streptokinase A.

Regarding `COc1cc2c3cc1Oc1c(OC)c(OC)cc4c1[C@@H](Cc1ccc(O)c(c1)Oc1ccc(cc1)C[C@@H]3N(C)CC2)CN(C)C4`, the AC50 on Cytochrome P450 3A4 was 2.51 µM (inconclusive).

Consider `C/C(=N\NC(=S)Nc1ccccc1C)c1cc2ccccc2o1`, for which the EC50 was 2.18 µM (active) in test [2] and > 60 µM (not active) in test [3].

With `COC(=O)c1nn(-c2ccc(OC)cc2)c(=O)cc1Oc1cccc(Cl)c1`, the AC50 at Cytochrome P450 3A4 is 39.8 µM (inconclusive).

Regarding `Cc1ccc2sc(NNC(=O)c3cc(-c4cccs4)nc4ccccc34)nc2c1C`, the figures for the EC50 (in test [4]; in the test on Streptococcus) were 0.758 µM (active) and 1.48 µM (active), respectively.

For `CC(C)(C)n1nnnc1C(c1cccnc1)N1CCN(c2ccccc2)CC1` (configuration not stated), the EC50 in test [2] was 0.666 µM (active); in test [3] it was > 60 µM (not active).

`CC(C)CCn1c(=O)c(C(=O)N/N=C/c2cccc(F)c2)c(O)c2ccccc21`: the values for the EC50 (in test [4]; in the test with Streptococcus) were 2.24 µM (active) and 7.41 µM (active), respectively.

For `N[C@@H](Cc1c[nH]cn1)C(=O)O` [HISTIDINE], at Cytochrome P450 3A4, the AC50 is 0.794 µM (inconclusive).

Turning to `Cc1nc(S)c2c(n1)-c1ccccc1CC21CCCCC1`, the EC50 was 1.15 µM (active) in test [4] and 3.57 µM (active) with Streptococcus.

`COc1ccc(C(=O)C2CCCN(Cc3ccc4nonc4c3)C2)c(OC)c1` (configuration not stated): the EC50 in test [2] is 0.97 µM (active); in test [3], > 60 µM (not active).

With `CC1CCCC(C)N1c1nnc(NC(=O)c2cc(-c3ccc(Br)cc3)on2)s1` (configuration not stated), the results for the EC50 (in test [4]; with Streptococcus; at Streptokinase A) were 2.33 µM (active), 25.2 µM (active) and > 150 µM (not active), respectively.

As to `N#C/C(=N\Nc1ccc(S(=O)(=O)N2CCOCC2)cc1)C(N)=S`, the EC50 (in test [4]; with Streptococcus; on Streptokinase A) was > 150 µM (not active) in each case.

`Cc1cc(N/N=C/c2cccc(Br)c2)nc2ccccc12`: the EC50 in test [4] is 7.14 µM (active); in the test with Streptococcus, 7.4 µM (active); on Streptokinase A it was > 150 µM (not active).

As for `Cc1ccc(C(=O)OC2OC(=O)C(Cl)=C2N2CCOCC2)cc1` (configuration not stated), the EC50 is 0.884 µM (active) in test [4] and 2.04 µM (active) in the test on Streptococcus.

A word on the CC50: it is the concentration at which the toxic effect on the cells reaches its halfway point. In general, EC50 refers to the concentration that produces a half-maximal response. For orientation: AC50 means the concentration at which the activity in the assay is half-maximal.
